Results: ChEMBL document CHEMBL1201862, “PubChem BioAssay data set” (2004)
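Method: 48-hour compound exposure of cells in 96-well plates, five concentrations, linear interpolation of endpoints. GI50 = concentration required for 50% inhibition of growth.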 Activity calls are given as the source filed them. No stated cut-off is given here; in the data, active = GI50 up to about 1.1 µM and inactive = higher. *1 amine or outer side, *2 acyl side, *3 side chain or, on linkers, in order; H or OH if unused. Where a SMILES comes first, the peptide text is derived from it. Bridges are numbered along the chain shown (N, C = ends). Roman numbers before positions name the chains, in order. [ ]: non-standard residue; d: D form. Actinocin(1to9) = Cc1c2oc3c(C)ccc(C(=O)[*:2])c3nc-2c(C(=O)[*:1])c(N)c1=O; NMeV = CN[CH](C(=O)O)C(C)C; Sar = CNCC(=O)O

Columns and labels:
Assay in all cases: NCI-60 cell line screen, 48 h
NCI-H522 = system: NCI-H522
MDA-MB-435 = system: MDA-MB-435
MCF7 = system: MCF7
LOX IMVI = system: LOX IMVI
SK-MEL-5 = system: SK-MEL-5
HCC 2998 = system: HCC 2998
HCT-116 = system: HCT-116
HCT-15 = system: HCT-15
786-0 = system: 786-0
MOLT-4 = system: MOLT-4
DU-145 = system: DU-145
SF-295 = system: SF-295
A549 = system: A549
OVCAR-5 = system: OVCAR-5
OVCAR-8 = system: OVCAR-8
CCRF-CEM = system: CCRF-CEM
SF-539 = system: SF-539
A498 = system: A498
OVCAR-4 = system: OVCAR-4
HOP-92 = system: HOP-92

Row | Structure (SMILES) | GI50 (NCI-H522) | GI50 (MDA-MB-435) | GI50 (MCF7) | GI50 (LOX IMVI) | GI50 (SK-MEL-5) | GI50 (HCC 2998) | GI50 (HCT-116) | GI50 (HCT-15) | GI50 (786-0) | GI50 (MOLT-4) | GI50 (DU-145) | GI50 (SF-295) | GI50 (A549) | GI50 (OVCAR-5) | GI50 (OVCAR-8) | GI50 (CCRF-CEM) | GI50 (SF-539) | GI50 (A498) | GI50 (OVCAR-4) | GI50 (HOP-92)
1 | COC(=O)c1c(O)ccc2c1c1c(n2C)C(=O)c2ccccc2C1=O | 18.4 µM (inactive) | 33 µM (inactive) | 9.18 µM (inactive) | 16.7 µM (inactive) | 30.9 µM (inactive) | 11.3 µM (inactive) | 12.2 µM (inactive) | 13.1 µM | 15.3 µM (inactive) | 5.78 µM (inactive) | 11.9 µM (inactive) | 22.5 µM (inactive) | 14.5 µM (inactive) | 85.3 µM (inactive) | 17.8 µM (inactive) | 6.37 µM (inactive) | 17.6 µM (inactive) | > 100 µM (inactive) | 13.6 µM (inactive) | 2.28 µM (inactive)
2 | CC(=O)NC(CC(C)C)C(=O)NC(CC(C)C)C(=O)NC(C=O)CCCNC(=N)N (stereo not given) | > 100 µM (inactive) | > 100 µM (inactive) | > 100 µM (inactive) | > 100 µM (inactive) | > 100 µM (inactive) | > 100 µM (inactive) | > 100 µM (inactive) | > 100 µM | > 100 µM (inactive) | 65 µM (inactive) | > 100 µM (inactive) | > 100 µM (inactive) | > 100 µM (inactive) | > 100 µM (inactive) | > 100 µM (inactive) | > 100 µM (inactive) | > 100 µM (inactive) | > 100 µM (inactive) | > 100 µM (inactive) | > 100 µM (inactive)
3 | O=C(c1cc(Cl)cc(Cl)c1)N(C(=O)N1CCN(c2ccccc2)CC1)c1ccccc1 | 16.4 µM (inactive) | 11.1 µM (inactive) | 29.9 µM (inactive) | 36.5 µM (inactive) | 21.6 µM (inactive) | 51.9 µM (inactive) | 24.3 µM (inactive) | 17 µM | 43.1 µM (inactive) | 20.1 µM (inactive) | 80.9 µM (inactive) | 37.2 µM (inactive) | 23.2 µM (inactive) | 22.3 µM (inactive) | 53.5 µM (inactive) | 22.5 µM (inactive) | 41 µM (inactive) | 21.2 µM (inactive) | 23 µM (inactive) | 34.5 µM (inactive)
4 | Cc1cccc(-c2cc(O)c3cc(C)cnc3n2)c1 | 0.0955 µM (active) | 0.0185 µM (active) | 0.305 µM (active) | 0.478 µM (active) | 0.12 µM (active) | 0.44 µM (active) | 0.118 µM (active) | 0.183 µM | 0.361 µM (active) | 0.244 µM (active) | 0.279 µM (active) | 0.148 µM (active) | 0.279 µM (active) | 0.414 µM (active) | 0.39 µM (active) | 0.202 µM (active) | 0.213 µM (active) | 0.372 µM (active) | 1.95 µM (inactive) | 11.7 µM (inactive)
5 | CCC(C)C1NC(=O)C(NC(=O)c2c3nc4c(C(=O)NC5C(=O)NC(C(C)C)C(=O)N6CCCC6C(=O)N(C)CC(=O)N(C)C(C(C)C)C(=O)OC5C)ccc(C)c4oc-3c(C)c(=O)c2N)C(C)OC(=O)C(C(C)C)N(C)C(=O)CN(C)C(=O)C2CCCN2C1=O (stereo not given) (I: TIP[Sar][NMeV] / II: TVP[Sar][NMeV]; ester I:1-I:C, II:1-II:C; linker I:N-II:N via Actinocin(1to9); configuration not given here) | < 0.0001 µM (active) | 0.000513 µM (active) | < 0.0001 µM (active) | < 0.0001 µM (active) | < 0.0001 µM (active) | 0.237 µM (active) | < 0.0001 µM (active) | 0.0807 µM | 0.00042 µM (active) | < 0.0001 µM (active) | 0.00475 µM (active) | 0.000353 µM (active) | 0.000431 µM (active) | 0.000586 µM (active) | 0.000443 µM (active) | 0.000421 µM (active) | 0.00165 µM (active) | 0.000197 µM (active) | 0.0102 µM (active) | 0.00161 µM (active)
